Experimental findings from patent publication US20100008976A1, “Medical Use of N-Phenylpropenoyl-Amino Acid Derivatives and Related Compounds” (Westfallsche Wilheims Universitat Munster, priority 2006, published 2010) are described below.

In series [1] the test system is Human primary keratinocytes (NHK). Nature of the series: BrdU incorporation proliferation in human keratinocytes. It counts as cell-based. Particulars: 10 μg/ml. The procedure: (§1) Human primary keratinocytes (NHK) were isolated from human skin obtained by surgical resection of Caucasian patients. In vitro tests relating to the mitochondrial activity, the BrdU incorporation and for necrotic effects by means of an LDH assay were carried out.
(§2) The investigations were carried out with cells of the 2nd to 6th passage. Both compound No. 5 and compound No. 8 increased in a concentration of 10 μg/ml both the mitochondrial activity and the proliferation (FIG. 3).
(§3) FIG. 3: Influence of compounds No. 5 and No. 8 (10 μg/ml) on the mitochondrial activity (A) and the mitotic proliferation (B) of HaCaT keratinocytes after incubation for 60 hours.
(§4) The measurement plotted in FIG. 3A is the relative mitochondrial dehydrogenase activity (untreated control=100%) and in FIG. 3 b is the relative mitochondrial proliferation rate (untreated control=100%).
(§5) The mitochondrial activity was investigated using the MTT assay, and the proliferation by BrdU-incorporation ELISA. The bars represent the standard errors with n=10. Negative control: untreated cells, positive control: fibroblast growth factor FGF.
A general note: Uptake of a labelled nucleoside into DNA is a usual measure of proliferation.

For series [2], the system named is human liver cells (HEPG2). Briefly: MTT cell metabolic (mitochondrial) activity in HepG2 liver cells. The series is classed as cell-based. Particulars: for mitochondrial activity: HepG2, 10 and 100 μg/ml, incubation for 48 hours, MTT; for energy status: HepG2, shortened incubation time of 24 hours. As for the experimental part:
(§6) The HepG2 cell line, clone H20, was received from Prof. Mersch-Sundermann, Giessen University, and cultured as described in [2]. The cells were cultured in low glucose (1 g/l) Dulbecco's modified Eagle's medium (DMEM) with L-glutamine and 25 mM Hepes, which was mixed with 15% (v/v) heat-inactivated fetal calf serum (FCS) and gentamycin (30 μg/ml), in a moist atmosphere at 37+/−0.5° C., 5% CO2. The cells were trypsinized, washed with PBS (pH 7.4), gently centrifuged and then a cell suspension in a cell medium was prepared by forcing the sediment through a needle. The medium was changed every three to five days. The compounds Nos. 5 and 8 to be tested were dissolved in a concentration of 1 mg/ml in HepG2 medium, to which the serum-free supplement SerEx was added instead of FCS, and filtered through a 0.2 μm cellulose acetate filter.
The cells were seeded in 96-well microtiter plates (1×10^4 cells/well). […] The cell metabolic activity was quantified as 2.5 mg/ml MTT in accordance with. The extracytosolic LDH [4] was quantified with a cytotoxicity assay.
FIG. 2: Influence of compounds No. 5 and No. 8 (10 and 100 μg/ml) on the mitochondrial activity of human liver cells (HEPG2) after incubation for 48 hours.
The measurement plotted in FIG. 2 is the relative mitochondrial dehydrogenase activity (untreated control=100%). The bars represent the means of a representative experiment with n=10.

Series [3] deals with Human primary keratinocytes (NHK). Briefly: LDH assay for necrotic effects in human keratinocytes. The series is classed as cell-based. The procedure:
as §1, §2

In another series the test system is HepG2 cell line. Nature of the series: Extracytosolic LDH cytotoxicity assay in HepG2 cells. Conditions: HepG2, 100 and 10 μg/ml. The series is classed as cell-based, human. As for the experimental part:
as §6
The cells were seeded in 96-well microtiter plates (1×10^4 cells/well). After 24 h, the medium was removed and the cells were exposed to the compounds to be tested, in concentrations of 100 and 10 μg/ml, for 48 h. The cell metabolic activity was quantified as 2.5 mg/ml MTT in accordance with. The extracytosolic LDH [4] was quantified with a cytotoxicity assay.

Series [4] concerns Human primary keratinocytes (NHK). Briefly: MTT mitochondrial activity in human keratinocytes. It counts as cell-based. Particulars: 10 μg/ml. The procedure: as §1, §2, §3, §4, §5
A further series relates to Helicobacter pylori. Nature of the series: Adhesion of FITC-labeled Helicobacter pylori to human gastric mucosa. It counts as cell-based. Particulars: for adhesion score / fluorescence intensity: FITC-labeled H. pylori on human gastric mucosa; for adhesion score: 1 mg/ml; for antiadhesive effect on Helicobacter pylori: bacteria incubated with compound 1 mg/ml, stomach tissue; for fluorescence intensity: untreated bacteria standardized to 100%. As for the experimental part: Adhesion tests were carried out in accordance with. This entailed FITC-labeled bacteria being incubated with the compounds to be tested (1 mg/ml). Deparaffinized pieces of stomach tissue were incubated with the bacteria. Microorganisms which adhere to the epithelium were counted under a fluorescence microscope and compared with an untreated control.
The maximum adhesion, as found for example in the untreated control groups (negative control), was assigned a score of +++++, while lower adhesions were assigned scores ++++, +++, ++, + or −, the score found for the positive control (sialyllactose, [7]) being −.
FIG. 4: Fluorescence microscopes (200×) of a representative in situ experiment with FITC-labeled H. pylorion human gastric mucosa: (A) complete adhesion (+++++) of untreated bacteria, fluorescence intensity standardized to 100% (negative control), (B) positive control (−), fluorescence intensity 10% (C) compound No. 5 (++++), fluorescence intensity 78%, (D) compound No. 8 (+) fluorescence intensity 19%.

For the compound `O=C(/C=C/c1ccc(O)c(O)c1)N[C@@H](Cc1c[nH]c2ccccc12)C(=O)O` [Compound 5, (+)-N-[3′,4′-dihydroxy-(E)-cinnamoyl]-L-tryptophan], the proliferation entry in series [1] is “increased”. Further, in series [2], the mitochondrial activity entry is on record as “increased” and the energy status result is recorded as “no effect”. Further, the cytotoxicity entry in series [3] is reported as “No cytotoxicity was detected”. Further, the “necrotic cytotoxicity (LDH)” value in the series with HepG2 cell line is on record as “no necrotic cytotoxicity was detectable”. The mitochondrial activity result in series [4] is listed as “increased”. Further, in the series on Helicobacter pylori, the adhesion score entry is reported as “++++”, the “antiadhesive effect on Helicobacter pylori” value (from here on “antiadhesive effect”) is listed as “no effect” and the fluorescence intensity is recorded as 78%.
For `O=C(O)C[C@H](NC(=O)/C=C/c1ccc(O)c(O)c1)C(=O)O` [Compound 8, (+)-N-[3′,4′-dihydroxy-(E)-cinnamoyl]-L-aspartic acid], the proliferation entry in series [1] is on record as “increased”. Also, in series [2], the mitochondrial activity result is “increased” and the energy status entry is “significantly increased”. Also, the cytotoxicity result in series [3] is given as “No cytotoxicity was detected”. In the series with HepG2 cell line, the “necrotic cytotoxicity (LDH)” value is “no necrotic cytotoxicity was detectable”. Moreover, the mitochondrial activity entry in series [4] is given as “increased”. Besides, in the series on Helicobacter pylori, the adhesion score result is recorded as “+”, the “antiadhesive effect” value is listed as “almost complete suppression of adhesion” and the fluorescence intensity is 19%.
With `O=C(/C=C/c1ccc(O)c(O)c1)N[C@@H](Cc1ccc(O)c(O)c1)C(=O)O` [Compound 11, (−)-N-[3′,4′-dihydroxy-(E)-cinnamoyl]-3-hydroxy-L-tyrosine], the proliferation entry in series [1] is listed as “none of the effects described”. Also, the mitochondrial activity result in series [2] and in series [4] was “none of the effects described” each time. Besides, the “antiadhesive effect” value in the series on Helicobacter pylori was “none of the effects described”.
On to sialyllactose [reference compound], for which, in the series on Helicobacter pylori, the adhesion score entry is “−” and the fluorescence intensity is 10%.
